From US20260184675A1, “CHIRAL ISOMERIC SULFITE COMPOUND AND APPLICATION THEREOF” (Chengdu Hanova BioSciences Co., Ltd, priority 2024, published 2026)

Test system: eggs of Tetranychus cinnabarinus
Test: Effects of sulfite compounds 1-30 and 1′-30′ on hatching of eggs of Tetranychus cinnabarinus at 100 ppm, leaf disc method
Assay type: in vivo
Conditions: 7 days after insecticide delivery
Procedure: • (1) Preparation of leaf discs containing eggs: 20 female adult mites of Tetranychus cinnabarinus were transferred onto leaf discs of Vicia faba with a diameter of 2.0 cm (with wetted filter paper at the bottom), then covered it with a lidded culture dish and cultivated under moisturizing conditions, the adult mites were removed within 36 hours and microscopic examination and counting were performed on leaf discs containing eggs. • (2) Investigation of egg population base: Before pesticide soaking, a microscopic examination was conducted on the egg basic number of each leaf disc, with 2 replicates set for each treatment. • (3) Pesticide soaking treatment: The leaf butterflies loaded with mite eggs were soaked in clear water and sulfite compounds for 10 seconds, respectively, then taken out and cultivated under moisturizing conditions. Each treatment should be repeated for no less than 3 times. • (4) Cultivation and observation: The […] were cultivated under normal conditions. Five days after insecticide delivery, the hatching status of mite eggs was investigated. • Note: The temperature and humidity conditions of the constant temperature and humidity incubator after the treatment should be controlled so as to avoid excessive temperature differences, which may cause generation and dripping of condensate water in the culture dish, resulting in abnormal death of eggs due to soaking in water; it is also necessary to ensure sufficient strong ambient light, without directing irradiating the leaves. • (5) Survey of Results: The experimental materials of each treatment group were regularly hydrated and moisturized, and the hatching of eggs was observed. On the 7th day after insecticide delivery, the number of hatched eggs for each treatment was recorded, and the survey of results was recorded in the original notebook. According to the experimental requirements and characteristics of agents, the survey time can be shortened or extended.
• 1) Surveying and recording the number of hatched eggs for each treatment. • 2) Photographing and recording whether there was any pesticide damage to the leaf discs of Vicia faba. • 3) Recording the developmental status of experimental mite eggs, behavior status of nymph mites, including abnormal phenomena such as delayed or stopped development of mite eggs, difficulty in breaking hull for nymph mites, or painful struggles after hatching, etc. • (6) Calculation method: Based on the survey data, the prevention and control effect of each treatment was calculated according to the following formula, and the calculation results were kept to two decimal places. […]

CC(COS(=O)OCCF)Oc1cc(Cl)ccc1Cl (stereo not shown) [Compound 7]
Hatching rate (%), Replicate 2 (replicate 2): 8.15%

CC(COc1cc(Cl)ccc1Cl)OS(=O)OCCBr (stereo not shown) [Compound 9′]
Hatching rate (%), Replicate 3: 15.15%

CC(C)(COS(=O)OCCBr)Oc1ccc(Cl)cc1Cl (stereo not shown) [Compound 12′]
Hatching rate (%), Replicate 3: 10.39%

O=C(OCCF)OC1COCC1Oc1ccc(Cl)cc1Cl (stereo not shown) [Compound 25]
Hatching rate (%), Replicate 3: 0.00%
